{
  "source": "BindingDB's records for doi:10.1021/acsmedchemlett.8b00576",
  "about": "(Usona Institute, 2019)",
  "molecular_target": "GTPase KRas (Homo sapiens, UniProt P01116)",
  "sequence (P01116 whole entry G12C)": "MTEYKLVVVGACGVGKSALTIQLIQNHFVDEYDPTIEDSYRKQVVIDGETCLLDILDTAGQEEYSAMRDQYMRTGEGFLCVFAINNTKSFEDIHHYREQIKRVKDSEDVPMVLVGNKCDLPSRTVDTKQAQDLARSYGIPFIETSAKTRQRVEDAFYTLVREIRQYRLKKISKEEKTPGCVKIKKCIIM",
  "assay": "Inhibition of GDP loaded biotin-labeled KRAS G12C mutant (unknown origin) assessed as reduction in guanine nucleotide exchange preincubated for 4 hrs followed by GST-RAF-RBD addition in presence of GTPgammaS by FRET assay",
  "data": [
    {"smiles": "C=CC(=O)N1CCN2c3nc(N4CC(N(C)C)C4)nc4cc(-c5c(C)ccc6[nH]ncc56)c(Cl)c(c34)OC[C@@H]2C1", "values": [
      {"measurement": "IC50", "value": 21, "unit": "nM"}
    ]}
  ]
}
